Earlier results in US20170326166A1, “COMPOSITIONS AND METHODS FOR TREATING PITUITARY TUMORS” (University of Virginia Patent Foundation, priority 2014, published 2017).

Columns and labels:
cancer cells [1] = conditions: in cancer cells; trapped in the cytosol
cancer cells [2] = conditions: cancer cells compared to their normal counterpart cells or other normal cells

intracellular half-life (cancer cells [1])	SMILES	accumulation in cells (cancer cells [2])
approximately 50 minutes	O=CC[C@@H](O)[C@H](O)[C@H](O)COP(=O)(O)O [2-deoxyglucose 6-phosphate]	–
–	O=CC[C@@H](O)[C@H](O)[C@H](O)CO [2DG, 2-Deoxy-D-glucose]	accumulates predominantly in cancer cells
